{"source": "paper PMC5177663", "about": "(Frontiers in Pharmacology, 2016)", "key": {"[1]": {"system": "phosphorylated CREB (pCREB)", "experiment": "pCREB immunohistochemistry after behavioral testing", "type": "in vivo, C57/Bl6 mice", "details": "test condition", "procedure": "(§1) Independent groups of mice (N = 10 per group) were used. An additional group composed by young vehicle mice (4–5 months young-vehicles, N = 10) was added for determination of the aging effect on both memory and phosphorylated CREB immunoreactivities, as compared to middle-aged Vehicles. For the immunohistochemical study, animals submitted to D1 memory testing were compared to “naïve” mice isolated in the colony room (with N = 5 per group; Naïve condition) and that underwent the food deprivation procedure and drug treatments as behaving animals (Test condition).\nThirty minutes after completion of the test session, mice were deeply anesthetized (Avertin, 10 mL/kg intraperitoneally i.p.), and perfused transcardially with an ice-cold solution of 4% paraformaldehyde in phosphate buffer (0.1 M, pH 7.4). After perfusion, brains were removed and post-fixed overnight in the same fixative at 4°C. Brains were then put in a sucrose solution (30% in Tris Buffer 0.1 M, pH 7.4) during 24 h. They were then frozen and cut in […] coronal free-floating sections with a freezing microtome (Leica) to proceed to immunochemistry.\nTotal CREB (tCREB) and phosphorylated CREB (pCREB) immunostainings were performed as described in full previously ([Vandesquille et al., 2013]; [Dominguez et al., 2014], [2016]). Countings were made in the following brain regions according to [Paxinos and Franklin (2001)] atlas: the CA1 of the dorsal (dCA1) and ventral (vCA1) hippocampus, the prelimbic cortex (PL), the dorsal striatum (St), the basolateral amygdala nucleus (BLA) and the medial septum nucleus (MS). Digital images were captured at 10X magnification using an Olympus (BX50) and an imaging analysis system (ImageJ®). At least six serial sections for each brain region were analyzed using a computerized image analysis system (Visiolab 2000®, Biocom, and V4.50). Quantification was expressed as mean number of positive nuclei per mm^2."}, "middle-aged mice": {"system": "middle-aged mice", "experiment": "contextual serial discrimination (CSD) task, contextual memory", "type": "in vivo, C57/Bl6 mice", "details": "for effect on SCM scores as compared to vehicle: Experiment 1, middle-aged mice, 9 days oral; for strength of contextual memory (SCM) score (% correct responses - % interference responses): Experiment 2, middle-aged mice, NS vs vehicle", "from_the_text": "The memory task and apparatus has been fully described previously ([Chauveau et al., 2009]). The contextual serial discrimination (CSD) task is based on two successive discriminations in a four-hole board which can be retrieved with the help of specific temporal and contextual cues associated with each of them.\nThe acquisition phase took place in room A where animals learned two consecutive spatial discriminations (D1 and D2; Figure 1A) which differed by the color and texture of the floor and were separated by a 2-min delay interval. For both D1 and D2, 10 20-mg food pellets were available during the 6-min exploration sessions; for D2 specifically, the baited hole was consistently located in the opposite symmetrical hole. Environmental cues made of colored paper sheets were positioned at 1.00 m above the board. At the end of the acquisition phase, mice returned in the animal’s room for 24 h. Animals retained for the test phase in the present study for both Experiments 1 and 2 have eaten at least 7–8 pellets/10 during both acquisitions.\nMice were replaced on the D1 floor in the board without any pellet in the apparatus and were allowed to freely explore for 6 min during which the number of head-dips in each hole was counted. This allowed measures of the % of “correct responses” (head-dips into the hole previously baited on the same floor-context), the % of “interference responses” (head-dips into the hole previously baited at D2, on the other floor-context) (Figure 1B) and of the “strength” of “contextual memory” score (SCM) (% correct responses - % interference responses). Thus, since correct responses are based on the use of the internal context (color of the floor) and interferent responses are based on the use of spatial allocentric cues previously associated with the other floor, thus the trend of SCM score toward a positive difference represents the gain of internal contextual memory, at the expense of allocentric spatial one.\nThe two last administrations were delivered 1 h before the acquisition and test phases.\nas §1"}, "[2]": {"system": "acetylcholine extracellular levels", "experiment": "intracerebral microdialysis, acetylcholine in mPFC and ventral hippocampus", "type": "in vivo, Wistar (Han) rats", "details": "at 30 min", "procedure": "The locomotor activity of the rats was recorded simultaneously during the sampling as a control method to assess a possible contribution of the handling stress and drug administration to microdialysis data.\nMale Wistar (Han) rats, weighting about 265 g, were used for the experiment. At their arrival at facility, rats were housed in humidity and temperature controlled room on a 12h light/dark cycle (light on at 6:00 h) with water and food available ad libitum. Rats were anaesthetized with isoflurane and stereotaxically implanted with two guide cannula: one into the ventral hippocampus (vHPC: Interaural + 3.7 mm, Lateral + 4.8 mm, Ventral -3.8 mm providing the final -8.0 mm for the tip of the microdialysis probe) and the second into the medial prefrontal cortex (mPFC: Interaural + 12.2 mm, Lateral - 0.5 mm, Ventral -1.6 mm providing the final -5.6 mm for the tip of the microdialysis probe). After a recovery of 5 days, a microdialysis probe was inserted into the each respective guide cannula of awake rat. The probes were perfused at a constant flow-rate of 1 µl/min with sterile artificial CSF solution in the absence of an AChE inhibitor (148 mM NaCl, 4 mM KCl, 0.8 mM MgCl2, 1.4 CaCl2, 1.2 mM Na2HPO4, 0.3 mM NaH2PO4, pH 7.2). Following 120-min stabilization period, the samples were collected every 30 minutes. The first 3 samples (-90 to 0 min) were taken for determination of basal extracellular levels of ACh. […] After finalizing the experiment, the animals were sacrificed by an overdose of isoflurane and dislocation of the neck.\nThe levels of ACh in the microdialysates were determined by high-performance liquid chromatography (HPLC) linked to a postcolumn immobilized enzyme reactor followed by electrochemical detection. Briefly, the HPLC system (HTEC-500, Eicom Corp.) included a pulse-free microflow pump, a degasser and an amperometric detector equipped with a platinum electrode. The potential of the working electrode vs. Ag/AgCl ref. electrode was set to +0.45 V vs. an Ag/AgCl reference elctrode. Samples were injected by use of a CMA/200 Refrigerated Microsampler (CMA/Microdialysis). The chromatograms were recorded and integrated by use of a computerized data acquisition system (DataApex, Prague, Czech Republic). ACh was separated on a 150 x 2.0 I.D. mm narrow-bore column, packed with C18 polymer gel, 4 μm particle size. The enzyme reactor AC-ENZYMPAK II (Eicom Corp.) was used. The mobile phase was a 50 mM potassium hydrogen carbonate buffer containing 3.7 mM sodium 1-octanesulfonate, 0.13 mM EDTA-2Na, final pH 7.2. […] Determination of ACh levels in the groups of rats treated with drugs and vehicle was performed in blind conditions."}, "in vivo": {"experiment": "in vivo", "procedure": "The sampling times are 30 min, 1, 2, 4, and 6 h. In each mouse, two time points of blood sampling were performed. Plasma was extracted from the blood sample by centrifugation (+4°C, 3000 g, 10 min) and stored at -80°C. Then, plasma samples were sent in dry ice to MDS (MDS Pharma Services, Switzerland) for the pharmacokinetic analysis."}, "mice": {"system": "mice", "experiment": "primary observation (IRWIN) test", "type": "in vivo", "details": "pharmacological doses, alone or in combination, data not shown"}, "H3 receptors": {"system": "H3 receptors", "parameters": "method as in Panayi et al., 2014", "details": "rats, mice, monkeys memory paradigms; ref Panayi et al., 2014; cited from earlier work"}, "[3]": {"details": "middle-aged mice, Donepezil 0.3 mg/kg (ANOVA factor)"}}}
{"smiles": "COc1cc2c(cc1OC)C(=O)C(CC1CCN(Cc3ccccc3)CC1)C2", "note": "(centres unmarked) [Donepezil, reference compound]", "values": [{"measurement": "increase of pCREB expression in the MS", "setting": "[1]; Donepezil alone (0.3 mg/kg) as compared to vehicle", "result": "+174.3%"}, {"measurement": "effect on pCREB immunopositive cells in the MS", "setting": "[1]; [3]", "result": "significant increase"}, {"measurement": "effect on pCREB immunopositive cells in the dCA1", "setting": "[1]; [3]", "result": "significant increase"}, {"measurement": "effect on SCM scores as compared to vehicle", "setting": "middle-aged mice; Donepezil alone at all doses (0.1 and 0.3 mg/kg)", "result": "did not show significant effect"}, {"measurement": "strength of contextual memory (SCM) score (% correct responses - % interference responses)", "setting": "middle-aged mice; Donepezil 0.3 mg/kg alone", "result": "+7.48 ± 3.60"}, {"measurement": "maximal increase of ACh levels", "setting": "[2]; rat mPFC, Donepezil 0.1 mg/kg i.p.", "result": "175 % of predrug values"}, {"measurement": "maximal increase of ACh levels", "setting": "[2]; rat mPFC, Donepezil 0.3 mg/kg i.p.", "result": "216 % of predrug values"}, {"measurement": "maximal increase of ACh levels", "setting": "[2]; rat vHPC, Donepezil 0.1 mg/kg i.p.", "result": "180 % of predrug values"}, {"measurement": "maximal increase of ACh levels", "setting": "[2]; rat vHPC, Donepezil 0.3 mg/kg i.p.", "result": "207 % of predrug values"}]}
{"smiles": "NC(=O)c1ccc(OCCCN2CC3CCCC3C2)cc1", "note": "(centres unmarked) [S 38093]", "values": [{"measurement": "AUC", "setting": "in vivo; C57/Bl6, mouse, po, 0.1 mg/kg", "result": 9.56, "unit": "ng·h/mL"}, {"measurement": "Cmax", "setting": "in vivo; C57/Bl6, mouse, po, 0.1 mg/kg", "result": 3.04, "unit": "ng/mL"}, {"measurement": "Tl/2", "setting": "in vivo; C57/Bl6, mouse, po, 1 mg/kg", "result": 2.37, "unit": "h"}, {"measurement": "AUC", "setting": "in vivo; C57/Bl6, mouse, po, 1 mg/kg", "result": 92.4, "unit": "ng·h/mL"}, {"measurement": "Cmax", "setting": "in vivo; C57/Bl6, mouse, po, 1 mg/kg", "result": 55.6, "unit": "ng/mL"}, {"measurement": "plasma exposure when administered as a combination", "setting": "in vivo; mouse", "result": "no increase"}, {"measurement": "effect on pCREB immunopositive cells in the dCA1 and the MS", "setting": "[1]; middle-aged mice, S 38093 at both doses (0.1 and 0.3 mg/kg)", "result": "no significant effect"}, {"measurement": "effect on SCM scores as compared to vehicle", "setting": "middle-aged mice; S 38093 0.1 mg/kg alone", "result": "did not show significant effect"}, {"measurement": "effect on SCM scores as compared to vehicle", "setting": "middle-aged mice; S 38093 1.0 mg/kg alone", "result": "did not show significant effect"}, {"measurement": "strength of contextual memory (SCM) score (% correct responses - % interference responses)", "setting": "middle-aged mice; S 38093 0.1 mg/kg alone", "result": "-14.3 ± 5.76"}, {"measurement": "strength of contextual memory (SCM) score (% correct responses - % interference responses)", "setting": "middle-aged mice; S 38093 0.3 mg/kg alone", "result": "+5.19 ± 6.68"}, {"measurement": "observable clinical signs", "setting": "mice", "result": "did not induce any observable clinical signs"}, {"measurement": "maximal increase of ACh levels", "setting": "[2]; rat mPFC, S 38093 3 mg/kg i.p., n.s.", "result": "158 % of predrug values"}, {"measurement": "maximal increase of ACh levels", "setting": "[2]; rat mPFC, S 38093 10 mg/kg i.p.", "result": "234 % of predrug values"}, {"measurement": "maximal increase of ACh levels", "setting": "[2]; rat vHPC, S 38093 3 mg/kg i.p.", "result": "153 % of predrug values"}, {"measurement": "maximal increase of ACh levels", "setting": "[2]; rat vHPC, S 38093 10 mg/kg i.p.", "result": "184 % of predrug values"}, {"measurement": "mean pharmacological dose with procognitive properties", "setting": "H3 receptors", "result": 0.3, "unit": "mg/kg"}]}
